Tests used:
2-ODD = target: T1, 2-ODD (Sinopodophyllum hexandrum, UniProt A0A0N9HQ36); assay: 2-ODD enzyme assays; format: biochemical, P. hexandrum; conditions: 5 μg/mL 2-ODD, 2-oxoglutarate, FeSO4, 30 μM substrate, 30° C., 2 h
T1 construct: 6xHis (C); made in house; host or cells: E. coli BL21 (DE3), pET24b
Protocol: The above protocol was also followed for the expression and purification of 2-ODD from BL21 (DE3) E. coli harboring pET24b:2-ODD except for the following changes: the 2 L culture at OD600=0.6 was cooled to 16° C. and induced with 100 μM IPTG. The culture was further incubated at 16° C. for 24 h and cooled in ice water before proceeding with purification.
Assays lacking enzyme or 2-oxoglutarate served as negative controls.
(§1) Total reaction volumes were 50 μL.

CYP71BE54 = target: T2, CYP71BE54 (Sinopodophyllum hexandrum, UniProt A0A0N9HT29); assay: CYP71BE54-microsome assays; conditions: 4 mg/mL microsomes, 1 mM NADPH, 50 μM substrate, 30° C., 2 h
T2 sequence (A0A0N9HT29 1-507): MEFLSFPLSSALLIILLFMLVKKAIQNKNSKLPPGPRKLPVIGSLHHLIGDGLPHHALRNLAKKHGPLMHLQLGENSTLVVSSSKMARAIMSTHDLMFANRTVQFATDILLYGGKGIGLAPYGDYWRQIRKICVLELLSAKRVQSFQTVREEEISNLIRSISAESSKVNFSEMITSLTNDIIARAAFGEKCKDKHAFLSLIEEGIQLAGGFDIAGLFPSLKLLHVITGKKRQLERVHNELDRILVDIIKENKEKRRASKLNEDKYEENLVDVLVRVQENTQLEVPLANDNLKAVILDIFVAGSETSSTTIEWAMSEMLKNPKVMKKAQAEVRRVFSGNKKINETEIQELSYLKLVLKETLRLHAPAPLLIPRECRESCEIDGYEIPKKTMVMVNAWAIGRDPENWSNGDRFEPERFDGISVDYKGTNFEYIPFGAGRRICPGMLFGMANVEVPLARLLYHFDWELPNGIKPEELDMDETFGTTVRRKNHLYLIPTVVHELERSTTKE
Protocol: as §1

[1] = target: T3, (−)-pluviatolide O-methyltransferase (OMT3) (Sinopodophyllum hexandrum, UniProt A0A0N9HMN6); assay: In vitro characterization of recombinant OMT3 (steady state kinetics, substrate specificity); format: biochemical, P. hexandrum; conditions: for acceptance as substrate by OMT3: (+)-pinoresinol 400 μM, (−)-matairesinol 40 μM, (−)-arctigenin 40 μM, quenched after 2 h
T3 construct: 6xHis (N); made in house; host or cells: E. coli BL21 (DE3), pET28a
T3 sequence (A0A0N9HMN6 1-372): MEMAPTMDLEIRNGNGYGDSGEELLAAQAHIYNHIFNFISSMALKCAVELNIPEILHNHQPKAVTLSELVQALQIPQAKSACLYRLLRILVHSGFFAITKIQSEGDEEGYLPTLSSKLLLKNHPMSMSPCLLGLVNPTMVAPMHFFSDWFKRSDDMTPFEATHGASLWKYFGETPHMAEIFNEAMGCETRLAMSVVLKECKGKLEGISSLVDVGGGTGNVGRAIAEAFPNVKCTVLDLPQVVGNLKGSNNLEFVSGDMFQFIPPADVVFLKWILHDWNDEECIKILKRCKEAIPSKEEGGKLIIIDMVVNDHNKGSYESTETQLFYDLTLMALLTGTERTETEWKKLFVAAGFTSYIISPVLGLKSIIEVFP

OMT1 = OMT1 enzyme assays; format: biochemical, P. hexandrum; conditions: 10 μg/mL OMT1, 1 mM SAM, 30 or 50 μM substrate, 30° C., 2 h
Protocol: The above protocol was also followed for the expression and purification of OMT1 from BL21 (DE3) E. coli harboring pET24b:OMT1.
Assay lacking SAM served as negative control.
as §1

CYP71CU1 = target: T4, CYP71CU1 (Sinopodophyllum hexandrum, UniProt A0A0N9HTU1); assay: CYP71CU1-microsome assays; conditions: 1 mg/mL microsomes, 1 mM NADPH, 30 or 50 μM substrate, 30° C., 2 h
T4 sequence (A0A0N9HTU1 1-493): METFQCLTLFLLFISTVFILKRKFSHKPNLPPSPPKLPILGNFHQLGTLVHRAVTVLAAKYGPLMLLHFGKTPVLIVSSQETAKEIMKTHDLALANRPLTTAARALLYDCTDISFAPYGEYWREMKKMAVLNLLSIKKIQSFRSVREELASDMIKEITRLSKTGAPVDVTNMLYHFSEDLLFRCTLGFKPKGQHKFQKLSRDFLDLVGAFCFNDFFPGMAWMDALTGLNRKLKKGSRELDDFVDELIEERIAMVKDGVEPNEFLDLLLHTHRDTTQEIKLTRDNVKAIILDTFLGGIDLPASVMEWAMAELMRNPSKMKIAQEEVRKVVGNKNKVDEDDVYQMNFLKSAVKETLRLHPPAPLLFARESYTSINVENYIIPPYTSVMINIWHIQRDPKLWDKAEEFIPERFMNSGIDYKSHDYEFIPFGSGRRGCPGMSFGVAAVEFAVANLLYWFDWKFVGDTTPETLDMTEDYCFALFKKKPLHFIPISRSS
Protocol: Yeast growth, induction and microsome preparation were performed according to Pompon et al. Microsomes enriched with P450 were isolated in 50 mM Tris-Cl, pH=7.4, 20% glycerol, 1 mM EDTA, flash-frozen as pellets in liquid nitrogen and kept at −80° C. for long term storage. Total protein content was estimated by measuring UV absorbance at 280 nm on a NanoDrop 1000 spectrophotometer.
CYP71CU1-microsome assays contained 1 mg/mL of CYP71CU1-microsomes, 1 mM NADPH, 30 or 50 μM of substrate and 100 mM NaCl in sodium phosphate buffer (50 mM, pH 7.4). Assays with microsomes from WAT11 harboring an empty vector or lacking NADPH served as negative controls. […] Enzyme assays with both CYP71CU1-microsomes and OMT1 contained 1 mg/mL of CYP71CU1-microsomes, 1 mM NADPH, 10 μg/mL of purified OMT1, 1 mM SAM, 30 or 50 μM of substrate and 100 mM NaCl in sodium phosphate buffer (50 mM, pH 7.4).
All substrates [(−)-matairesinol, (−)-arctigenin, (−)-pluviatolide, (−)-5′-desmethoxy-yatein, (−)-yatein, (−)-deoxypodophyllotoxin, and (−)-podophyllotoxin] were derived from a 100% DMSO stock; final concentration of DMSO in enzyme assays was kept constant at 5%. Total reaction volumes were 50 μL. Reactions were initiated by the addition of enzyme and incubated at 30° C.
After 2 h of incubation, reactions were quenched by the addition of 1 volume of acetonitrile with 0.1% TFA and clarified by centrifugation for 10 min at 17,000 g.

T1 sequence (A0A0N9HQ36 whole entry): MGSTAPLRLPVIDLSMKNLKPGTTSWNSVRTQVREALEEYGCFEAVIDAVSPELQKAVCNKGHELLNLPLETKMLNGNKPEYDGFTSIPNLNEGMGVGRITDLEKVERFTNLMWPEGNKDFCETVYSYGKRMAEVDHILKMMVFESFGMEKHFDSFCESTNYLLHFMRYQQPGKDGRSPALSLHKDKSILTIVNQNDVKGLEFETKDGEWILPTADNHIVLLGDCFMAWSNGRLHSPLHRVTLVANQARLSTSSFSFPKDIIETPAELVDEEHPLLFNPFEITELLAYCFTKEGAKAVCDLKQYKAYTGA

SMILES | activity of CYP71BE54-enriched microsomes on substrate (CYP71BE54) | acceptance as substrate by OMT3 [1] | activity of OMT1 on substrate (OMT1) | activity of CYP71CU1 on substrate (CYP71CU1) | also measured
COc1ccc(C[C@H]2C(=O)OC[C@@H]2Cc2ccc3c(c2)OCO3)cc1OC [(−)-5′-desmethoxy-yatein] | No activity | – | – | – | activity of 2-ODD on substrate, compared to (−)-yatein (2-ODD): some activity
COc1cc(C2OCC3C(c4ccc(O)c(OC)c4)OCC23)ccc1O (single isomer, unassigned; (+)) [(+)-pinoresinol] | – | did not turn over | – | – | –
COc1cc(C[C@H]2C(=O)OC[C@@H]2Cc2ccc3c(c2)OCO3)cc(OC)c1OC [(−)-yatein] | No activity | – | – | – | –
COc1cc(C[C@H]2COC(=O)[C@@H]2Cc2ccc(O)c(OC)c2)ccc1O [(−)-matairesinol] | – | much lower efficiency | not active | not active | –
COc1cc(C[C@H]2C(=O)OC[C@@H]2Cc2ccc(OC)c(OC)c2)ccc1O [(−)-arctigenin] | – | much lower efficiency | not active | not active | –
COc1cc(C[C@H]2C(=O)OC[C@@H]2Cc2ccc3c(c2)OCO3)ccc1O [(−)-pluviatolide] | – | – | not active | not active | kcat ([1]; (−)-pluviatolide methylation by OMT3 purified from E. coli, 1 mM SAM, 22° C., pH 7.4): 0.72 s⁻¹; Km ([1]; (−)-pluviatolide methylation by OMT3 purified from E. coli, 1 mM SAM, 22° C., pH 7.4, read-out: apparent Km): 1.4 µM; activity of 2-ODD on substrate, compared to (−)-yatein (2-ODD): negligible activity
COc1cc([C@@H]2c3cc4c(cc3[C@H](O)[C@H]3COC(=O)[C@H]23)OCO4)cc(OC)c1OC [(−)-podophyllotoxin] | No activity | – | – | – | –

From US10472688B2, “Compositions and methods for producing podophyllotoxin derivatives” (The Board of Trustees of the Leland Stanford Junior …, priority 2015, dated 2019)
